Experimental data as given in ChEMBL document CHEMBL2440027, “Further SAR studies on bicyclic basic merbarone analogues as potent antiproliferative agents” (Bioorg Med Chem, 2013).

The molecules below were run on HeLa (assay: Cytotoxicity against human HeLa cells). Details: Homo sapiens, HeLa.
Assay type: functional, cell-based

Row | Structure (SMILES) | IC50
1 | N=c1c2c(=S)n(-c3ccccc3)c(=S)n(-c3ccccc3)c2nc(NCCN2CCCCC2)n1-c1ccccc1 [listing 1 of 2 here] | 5.2 µM
2 | N=c1c2c(=S)n(-c3ccccc3)c(=S)n(-c3ccccc3)c2nc(NCCc2ccccn2)n1-c1ccccc1 | 10.5 µM
3 | O=C1NC(=S)NC(=O)C1C(=O)Nc1ccccc1 [MERBARONE] | 43.8 µM
4 | N=c1c2c(=S)n(-c3ccccc3)c(=S)n(-c3ccccc3)c2nc(NCCc2ccc(Cl)cc2)n1-c1ccccc1 [listing 1 of 2 here] | 5.6 µM
5 | CN1CCN(c2nc3c(c(=N)n2-c2ccccc2)c(=S)n(-c2ccccc2)c(=S)n3-c2ccccc2)CC1 | > 50 µM
6 | CCN(CC)CCNc1nc2c(c(=N)n1-c1ccccc1)c(=S)n(-c1ccccc1)c(=S)n2-c1ccccc1 | 16.9 µM
7 | CCCCN(CCCC)CCCNc1nc2c(c(=N)n1-c1ccccc1)c(=S)n(-c1ccccc1)c(=S)n2-c1ccccc1 | 2 µM
8 | N=c1c2c(=S)n(-c3ccccc3)c(=S)n(-c3ccccc3)c2nc(NCCc2ccncc2)n1-c1ccccc1 | 15.4 µM
9 | CN1CCN(CCCNc2nc3c(c(=N)n2-c2ccccc2)c(=S)n(-c2ccccc2)c(=S)n3-c2ccccc2)CC1 [listing 1 of 2 here] | 8.5 µM
10 | CN(C)CCCNc1nc2c(c(=N)n1-c1ccccc1)c(=S)n(-c1ccccc1)c(=S)n2-c1ccccc1 | 7.8 µM
11 | N=c1c2c(=S)n(-c3ccccc3)c(=S)n(-c3ccccc3)c2nc(NCc2ccccn2)n1-c1ccccc1 | > 50 µM
12 | N=c1c2c(=S)n(-c3ccccc3)c(=S)n(-c3ccccc3)c2nc(NCCCn2ccnc2)n1-c1ccccc1 | > 100 µM
13 | N=c1c2c(=S)n(-c3ccccc3)c(=S)n(-c3ccccc3)c2nc(NCc2cccnc2)n1-c1ccccc1 [listing 1 of 2 here] | 14.6 µM

Same assay, conditions: hela

Row | Structure (SMILES) | IC50
14 | N=c1c2c(=S)n(-c3ccccc3)c(=S)n(-c3ccccc3)c2nc(NCc2cccnc2)n1-c1ccccc1 [listing 2 of 2 here] | 12.6 µM
15 | N=c1c2c(=S)n(-c3ccccc3)c(=S)n(-c3ccccc3)c2nc(NCCc2ccc(Cl)cc2)n1-c1ccccc1 [listing 2 of 2 here] | 5.9 µM

Each molecule was assayed against DNA topoisomerase 2-alpha (Homo sapiens, UniProt P11388) (assay: Inhibition of human topoisomerase 2alpha-mediated relaxation of supercoiled pBR322 after 1 hr by ethidium bromide staining). Details: not given.
DNA topoisomerase 2-alpha, sequence (P11388 whole entry): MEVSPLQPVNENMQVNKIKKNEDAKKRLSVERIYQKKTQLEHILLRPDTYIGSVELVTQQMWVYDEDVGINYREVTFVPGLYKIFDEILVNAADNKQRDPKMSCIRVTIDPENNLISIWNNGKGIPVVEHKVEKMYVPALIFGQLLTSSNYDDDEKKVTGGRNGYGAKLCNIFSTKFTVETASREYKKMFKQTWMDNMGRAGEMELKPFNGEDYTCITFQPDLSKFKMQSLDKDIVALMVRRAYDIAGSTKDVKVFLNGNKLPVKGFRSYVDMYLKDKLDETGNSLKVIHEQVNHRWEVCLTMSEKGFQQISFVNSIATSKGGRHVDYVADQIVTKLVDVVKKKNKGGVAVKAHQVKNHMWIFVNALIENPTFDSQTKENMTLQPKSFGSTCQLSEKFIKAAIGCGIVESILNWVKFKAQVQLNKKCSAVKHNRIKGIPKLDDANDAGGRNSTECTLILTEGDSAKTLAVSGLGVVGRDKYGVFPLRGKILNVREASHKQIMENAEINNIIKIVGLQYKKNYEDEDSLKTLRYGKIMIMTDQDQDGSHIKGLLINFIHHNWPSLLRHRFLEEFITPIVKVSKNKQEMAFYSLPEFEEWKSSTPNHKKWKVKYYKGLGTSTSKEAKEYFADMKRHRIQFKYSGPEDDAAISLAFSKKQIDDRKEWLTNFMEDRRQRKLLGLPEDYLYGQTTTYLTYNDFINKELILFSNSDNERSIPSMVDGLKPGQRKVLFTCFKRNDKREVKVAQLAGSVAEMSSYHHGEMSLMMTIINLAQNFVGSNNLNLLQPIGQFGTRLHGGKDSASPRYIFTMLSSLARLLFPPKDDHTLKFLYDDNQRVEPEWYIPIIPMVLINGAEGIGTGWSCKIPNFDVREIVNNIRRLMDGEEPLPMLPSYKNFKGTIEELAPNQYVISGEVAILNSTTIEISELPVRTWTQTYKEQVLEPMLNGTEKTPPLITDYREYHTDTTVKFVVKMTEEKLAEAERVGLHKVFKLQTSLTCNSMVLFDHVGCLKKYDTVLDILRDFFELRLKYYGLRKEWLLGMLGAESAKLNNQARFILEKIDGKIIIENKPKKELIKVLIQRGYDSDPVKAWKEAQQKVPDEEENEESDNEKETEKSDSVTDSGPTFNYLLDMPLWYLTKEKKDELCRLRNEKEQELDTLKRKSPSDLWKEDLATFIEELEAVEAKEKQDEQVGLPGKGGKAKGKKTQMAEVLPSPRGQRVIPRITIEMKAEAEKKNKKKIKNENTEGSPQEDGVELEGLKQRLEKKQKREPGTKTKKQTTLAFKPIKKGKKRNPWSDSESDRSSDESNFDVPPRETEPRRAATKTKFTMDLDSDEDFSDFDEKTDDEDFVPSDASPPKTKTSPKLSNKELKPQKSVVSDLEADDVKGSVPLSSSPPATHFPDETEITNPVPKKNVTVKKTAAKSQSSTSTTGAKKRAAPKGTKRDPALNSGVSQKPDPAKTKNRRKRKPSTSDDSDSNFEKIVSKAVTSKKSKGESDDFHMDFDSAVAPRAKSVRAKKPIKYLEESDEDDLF

Row | Structure (SMILES) | IC50
16 | N=c1c2c(=S)n(-c3ccccc3)c(=S)n(-c3ccccc3)c2nc(NCc2cccnc2)n1-c1ccccc1 [listing 2 of 2 here] | 3 µM
17 | N=c1c2c(=S)n(-c3ccccc3)c(=S)n(-c3ccccc3)c2nc(NCCN2CCCCC2)n1-c1ccccc1 [listing 1 of 2 here] | 3 µM
18 | N=c1c2c(=S)n(-c3ccccc3)c(=S)n(-c3ccccc3)c2nc(NCCc2ccccn2)n1-c1ccccc1 | > 100 µM
19 | N=c1c2c(=S)n(-c3ccccc3)c(=S)n(-c3ccccc3)c2nc(NCCc2ccc(Cl)cc2)n1-c1ccccc1 [listing 2 of 2 here] | 2 µM
20 | O=C1NC(=S)NC(=O)C1C(=O)Nc1ccccc1 [MERBARONE] | 32 µM
21 | N=c1c2c(=S)n(-c3ccccc3)c(=S)n(-c3ccccc3)c2nc(NCCc2ccc(Cl)cc2)n1-c1ccccc1 [listing 1 of 2 here] | 2 µM
22 | CCN(CC)CCNc1nc2c(c(=N)n1-c1ccccc1)c(=S)n(-c1ccccc1)c(=S)n2-c1ccccc1 | > 100 µM
23 | CCCCN(CCCC)CCCNc1nc2c(c(=N)n1-c1ccccc1)c(=S)n(-c1ccccc1)c(=S)n2-c1ccccc1 | > 32 µM
24 | N=c1c2c(=S)n(-c3ccccc3)c(=S)n(-c3ccccc3)c2nc(NCCc2ccncc2)n1-c1ccccc1 | > 100 µM
25 | CN1CCN(CCCNc2nc3c(c(=N)n2-c2ccccc2)c(=S)n(-c2ccccc2)c(=S)n3-c2ccccc2)CC1 [listing 1 of 2 here] | > 35 µM
26 | CN(C)CCCNc1nc2c(c(=N)n1-c1ccccc1)c(=S)n(-c1ccccc1)c(=S)n2-c1ccccc1 | > 100 µM
27 | N=c1c2c(=S)n(-c3ccccc3)c(=S)n(-c3ccccc3)c2nc(NCc2ccccn2)n1-c1ccccc1 | > 100 µM
28 | N=c1c2c(=S)n(-c3ccccc3)c(=S)n(-c3ccccc3)c2nc(NCc2cccnc2)n1-c1ccccc1 [listing 1 of 2 here] | 3 µM

The molecules below were run on MT4 (assay: Cytotoxicity against human MT4 cells). Details: not given.
Assay type: functional, cell-based

Row | Structure (SMILES) | IC50
29 | N=c1c2c(=S)n(-c3ccccc3)c(=S)n(-c3ccccc3)c2nc(NCc2cccnc2)n1-c1ccccc1 [listing 2 of 2 here] | > 100 µM
30 | N=c1c2c(=S)n(-c3ccccc3)c(=S)n(-c3ccccc3)c2nc(NCCN2CCCCC2)n1-c1ccccc1 [listing 2 of 2 here] | 1.7 µM
31 | N=c1c2c(=S)n(-c3ccccc3)c(=S)n(-c3ccccc3)c2nc(NCCc2ccccn2)n1-c1ccccc1 | 8 µM
32 | N=c1c2c(=S)n(-c3ccccc3)c(=S)n(-c3ccccc3)c2nc(NCCc2ccc(Cl)cc2)n1-c1ccccc1 [listing 2 of 2 here] | 2.4 µM
33 | O=C1NC(=S)NC(=O)C1C(=O)Nc1ccccc1 [MERBARONE] | 12 µM
34 | CN1CCN(c2nc3c(c(=N)n2-c2ccccc2)c(=S)n(-c2ccccc2)c(=S)n3-c2ccccc2)CC1 | > 100 µM
35 | CCN(CC)CCNc1nc2c(c(=N)n1-c1ccccc1)c(=S)n(-c1ccccc1)c(=S)n2-c1ccccc1 | 2.5 µM
36 | N=c1c2c(=S)n(-c3ccccc3)c(=S)n(-c3ccccc3)c2nc(NCCc2ccncc2)n1-c1ccccc1 | 16 µM
37 | CN1CCN(CCCNc2nc3c(c(=N)n2-c2ccccc2)c(=S)n(-c2ccccc2)c(=S)n3-c2ccccc2)CC1 [listing 2 of 2 here] | 2 µM
38 | CN(C)CCCNc1nc2c(c(=N)n1-c1ccccc1)c(=S)n(-c1ccccc1)c(=S)n2-c1ccccc1 | 1.7 µM
39 | CCN(CC)CCSc1nc2c(c(=N)n1-c1ccccc1)c(=S)n(-c1ccccc1)c(=S)n2-c1ccccc1 | 3.3 µM
40 | N=c1c2c(=S)n(-c3ccccc3)c(=S)n(-c3ccccc3)c2nc(NCc2ccccn2)n1-c1ccccc1 | 7 µM
41 | N=c1c2c(=S)n(-c3ccccc3)c(=S)n(-c3ccccc3)c2nc(NCCCn2ccnc2)n1-c1ccccc1 | 8 µM
42 | N=c1c2c(=S)n(-c3ccccc3)c(=S)n(-c3ccccc3)c2nc(SCCN2CCCCC2)n1-c1ccccc1 | 3.6 µM
43 | N=c1c2c(=S)n(-c3ccccc3)c(=S)n(-c3ccccc3)c2nc(NNc2ccccc2)n1-c1ccccc1 | > 100 µM

The molecules below were run on MCF7 (assay: Cytotoxicity against human MCF7 cells). Details: not given.
Assay type: functional, cell-based

Row | Structure (SMILES) | IC50
44 | N=c1c2c(=S)n(-c3ccccc3)c(=S)n(-c3ccccc3)c2nc(NCCN2CCCCC2)n1-c1ccccc1 [listing 1 of 2 here] | 26.7 µM
45 | N=c1c2c(=S)n(-c3ccccc3)c(=S)n(-c3ccccc3)c2nc(NCCc2ccccn2)n1-c1ccccc1 | 17.3 µM
46 | O=C1NC(=S)NC(=O)C1C(=O)Nc1ccccc1 [MERBARONE] | 61.6 µM
47 | N=c1c2c(=S)n(-c3ccccc3)c(=S)n(-c3ccccc3)c2nc(NCCc2ccc(Cl)cc2)n1-c1ccccc1 [listing 1 of 2 here] | 25.6 µM
48 | CN1CCN(c2nc3c(c(=N)n2-c2ccccc2)c(=S)n(-c2ccccc2)c(=S)n3-c2ccccc2)CC1 | > 50 µM
49 | CCN(CC)CCNc1nc2c(c(=N)n1-c1ccccc1)c(=S)n(-c1ccccc1)c(=S)n2-c1ccccc1 | 11.1 µM
50 | CCCCN(CCCC)CCCNc1nc2c(c(=N)n1-c1ccccc1)c(=S)n(-c1ccccc1)c(=S)n2-c1ccccc1 | < 1 µM
51 | N=c1c2c(=S)n(-c3ccccc3)c(=S)n(-c3ccccc3)c2nc(NCCc2ccncc2)n1-c1ccccc1 | 17.8 µM
52 | CN1CCN(CCCNc2nc3c(c(=N)n2-c2ccccc2)c(=S)n(-c2ccccc2)c(=S)n3-c2ccccc2)CC1 [listing 1 of 2 here] | 5.7 µM
53 | CN(C)CCCNc1nc2c(c(=N)n1-c1ccccc1)c(=S)n(-c1ccccc1)c(=S)n2-c1ccccc1 | 5.5 µM
54 | N=c1c2c(=S)n(-c3ccccc3)c(=S)n(-c3ccccc3)c2nc(NCc2ccccn2)n1-c1ccccc1 | > 50 µM
55 | N=c1c2c(=S)n(-c3ccccc3)c(=S)n(-c3ccccc3)c2nc(NCCCn2ccnc2)n1-c1ccccc1 | > 100 µM
56 | N=c1c2c(=S)n(-c3ccccc3)c(=S)n(-c3ccccc3)c2nc(NCc2cccnc2)n1-c1ccccc1 [listing 1 of 2 here] | 24.3 µM
